Laboratory results taken from ChEMBL document CHEMBL1201862, “PubChem BioAssay data set” (2004).
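Tested at 5 concentrations; 48 h exposure; 96-well plates; endpoints linearly interpolated, else capped at highest concentration. Here, GI50 denotes the concentration required for 50% inhibition of growth.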 Activity calls are given as the source filed them. Rule as the data show it: active = GI50 up to about 1.1 µM and inactive = higher.

Legend:
Assay in all cases: NCI tumour cell line growth inhibition, 48 h
Hs-578T = system: Hs-578T
KM12 = system: KM12
CAKI-1 = system: CAKI-1
MOLT-4 = system: MOLT-4
T47D = system: T47D
UACC-257 = system: UACC-257
A549 = system: A549
IGROV-1 = system: IGROV-1
SK-MEL-2 = system: SK-MEL-2
SN12C = system: SN12C
COLO 205 = system: COLO 205
SF-539 = system: SF-539
SR = system: SR
NCI-H460 = system: NCI-H460
HT-29 = system: HT-29
CCRF-CEM = system: CCRF-CEM
PC-3 = system: PC-3
SK-MEL-28 = system: SK-MEL-28
BT-549 = system: BT-549
MDA-N = system: MDA-N

SMILES | GI50 (Hs-578T) | GI50 (KM12) | GI50 (CAKI-1) | GI50 (MOLT-4) | GI50 (T47D) | GI50 (UACC-257) | GI50 (A549) | GI50 (IGROV-1) | GI50 (SK-MEL-2) | GI50 (SN12C) | GI50 (COLO 205) | GI50 (SF-539) | GI50 (SR) | GI50 (NCI-H460) | GI50 (HT-29) | GI50 (CCRF-CEM) | GI50 (PC-3) | GI50 (SK-MEL-28) | GI50 (BT-549) | GI50 (MDA-N)
CCN(CC)Cc1cc(Nc2c3ccccc3nc3c4ccccc4n(C)c23)cc(CN(CC)CC)c1O | 6.22 µM (inactive) | 6.58 µM (inactive) | 13.5 µM (inactive) | 1.63 µM (inactive) | 3.18 µM (inactive) | 2.73 µM (inactive) | 8.43 µM (inactive) | 9.98 µM (inactive) | 2.67 µM (inactive) | 6.61 µM (inactive) | 2.77 µM (inactive) | 3.18 µM (inactive) | 2.82 µM (inactive) | 3.89 µM (inactive) | 3.41 µM (inactive) | 2.4 µM (inactive) | 2.42 µM (inactive) | 2.37 µM (inactive) | 2 µM (inactive) | 
CCCCNc1c(CN)cnc2cc(Cl)ccc12 | 17.6 µM (inactive) | 15.5 µM (inactive) | 21.1 µM (inactive) | 17 µM (inactive) | 19.2 µM (inactive) | 13 µM (inactive) | 20.5 µM (inactive) | 14.7 µM (inactive) | 17.8 µM (inactive) | 18.4 µM (inactive) | 7.48 µM (inactive) |  |  | 13 µM (inactive) | 16.9 µM (inactive) | 4.7 µM (inactive) | 16.8 µM (inactive) | 15.6 µM (inactive) | 16.6 µM (inactive) | 16.1 µM (inactive)
O=c1[nH]c(=O)n(COCCO)c2ccsc12 | > 100 µM (inactive) | > 100 µM (inactive) | > 100 µM (inactive) | > 100 µM (inactive) |  | > 100 µM (inactive) | > 100 µM (inactive) | > 100 µM (inactive) | > 100 µM (inactive) | > 100 µM (inactive) | > 100 µM (inactive) | > 100 µM (inactive) | > 100 µM (inactive) | > 100 µM (inactive) | > 100 µM (inactive) | > 100 µM (inactive) | > 100 µM (inactive) | > 100 µM (inactive) | > 100 µM (inactive) | > 100 µM (inactive)
COC(=O)c1c(C)cccc1C1CN=NC12Cc1cc(C)cc(C)c1C2=O (centres undefined) | 73.1 µM (inactive) | 31.4 µM (inactive) | 24.9 µM (inactive) | 32.1 µM (inactive) | 30.2 µM (inactive) | 22.9 µM (inactive) | 37.1 µM (inactive) | 57.7 µM (inactive) | 27.7 µM (inactive) | 41.8 µM (inactive) | 17.2 µM (inactive) | 41.3 µM (inactive) |  | 32.1 µM (inactive) | 21.5 µM (inactive) | 23 µM (inactive) | 30.1 µM (inactive) | 76.4 µM (inactive) | 29.7 µM (inactive) | 37.6 µM (inactive)
COc1ccc(C#Cn2nnc3ccccc32)cc1 | > 100 µM (inactive) | 96.4 µM (inactive) | 32.1 µM (inactive) | 71.6 µM (inactive) |  | 50.4 µM (inactive) | > 100 µM (inactive) | > 100 µM (inactive) | 92 µM (inactive) | > 100 µM (inactive) | > 100 µM (inactive) | > 100 µM (inactive) | > 100 µM (inactive) | > 100 µM (inactive) | > 100 µM (inactive) |  | 86.7 µM (inactive) | > 100 µM (inactive) | > 100 µM (inactive) | > 100 µM (inactive)
c1ccc2c(c1)ccn1ccc3c4ccccc4nc-3c21 | 1.23 µM (inactive) | 0.346 µM (active) | 0.417 µM (active) | 0.0759 µM (active) | 0.71 µM (active) | 1.06 µM (active) | 0.32 µM (active) | 0.394 µM (active) | 1.17 µM (inactive) | 0.285 µM (active) | 0.222 µM (active) | 0.369 µM (active) | < 0.01 µM (active) | 0.262 µM (active) | 0.11 µM (active) | 0.26 µM (active) | 0.384 µM (active) | 0.368 µM (active) | 1.43 µM (inactive) | 
CC1=Nc2ccccc2OC(C)=C1/N=N/c1ccc2[nH]c(C)nc2c1 |  | > 100 µM (inactive) | 47.1 µM (inactive) | > 100 µM (inactive) | 50.9 µM (inactive) | > 100 µM (inactive) | > 100 µM (inactive) | 33.5 µM (inactive) | > 100 µM (inactive) | 84.7 µM (inactive) | > 100 µM (inactive) | > 100 µM (inactive) | > 100 µM (inactive) | 55.2 µM (inactive) | > 100 µM (inactive) | > 100 µM (inactive) | > 100 µM (inactive) | > 100 µM (inactive) | > 100 µM (inactive) | > 100 µM (inactive)
COc1cc(Nc2nc3cc(C(F)(F)F)ccc3nc2C(=O)O)cc(OC)c1OC | 31.7 µM (inactive) | 41.5 µM (inactive) | 30.7 µM (inactive) | 39.7 µM (inactive) | 22.5 µM (inactive) | > 100 µM (inactive) | 64.4 µM (inactive) | 66.1 µM (inactive) | 19.1 µM (inactive) | 51.2 µM (inactive) | 45.5 µM (inactive) | 43.6 µM (inactive) |  | 58.1 µM (inactive) | 49.7 µM (inactive) | 29.4 µM (inactive) |  | 69.2 µM (inactive) | 34.9 µM (inactive) | 33.3 µM (inactive)
CC(=O)Nc1ccccc1SCCSSCCSc1ccccc1NC(C)=O |  | 40.1 µM (inactive) | 20.8 µM (inactive) | 24 µM (inactive) | 25.6 µM (inactive) | 20.7 µM (inactive) | 25.7 µM (inactive) | 20.3 µM (inactive) | 27.9 µM (inactive) | 32.4 µM (inactive) | 20.4 µM (inactive) | 24 µM (inactive) | 34.4 µM (inactive) | 25.1 µM (inactive) | 28.8 µM (inactive) | 23.6 µM (inactive) | 23.1 µM (inactive) |  | 51.9 µM (inactive) | 25.4 µM (inactive)
NC(=O)C(=CN1C(=O)CC(=O)NC1=S)C(N)=O |  | > 100 µM (inactive) | > 100 µM (inactive) | > 100 µM (inactive) | > 100 µM (inactive) | > 100 µM (inactive) | > 100 µM (inactive) | > 100 µM (inactive) | > 100 µM (inactive) | > 100 µM (inactive) | > 100 µM (inactive) | > 100 µM (inactive) |  | > 100 µM (inactive) | > 100 µM (inactive) |  |  | > 100 µM (inactive) | > 100 µM (inactive) | 
Cc1ccc2[nH]c3[nH]c(=O)[nH]c(=O)c3c2c1 | > 100 µM (inactive) | 43.6 µM (inactive) | > 100 µM (inactive) | > 100 µM (inactive) | > 100 µM (inactive) | > 100 µM (inactive) | > 100 µM (inactive) | > 100 µM (inactive) | > 100 µM (inactive) | > 100 µM (inactive) | > 100 µM (inactive) | > 100 µM (inactive) | > 10 µM (inactive) |  | > 100 µM (inactive) | > 100 µM (inactive) |  |  | > 100 µM (inactive) | > 100 µM (inactive)
C[S+](C)C1(c2ccccc2)C(=O)c2ccccc2C1=O | 24.4 µM (inactive) | > 100 µM (inactive) | > 100 µM (inactive) | > 83.2 µM (inactive) | 29.4 µM (inactive) | > 64.9 µM (inactive) | 36.4 µM (inactive) | > 69.3 µM (inactive) | > 43 µM (inactive) | > 100 µM (inactive) | > 100 µM (inactive) | 28.7 µM (inactive) | > 72.8 µM (inactive) | > 55.6 µM (inactive) | > 100 µM (inactive) | > 46.9 µM (inactive) | 76.2 µM (inactive) | > 100 µM (inactive) | 11.8 µM (inactive) | 
CCOc1cn(C2CC(O)C(CO)O2)c(=O)[nH]c1=O (centres undefined) | > 100 µM (inactive) | > 100 µM (inactive) | > 100 µM (inactive) | > 100 µM (inactive) | > 100 µM (inactive) | > 100 µM (inactive) | > 100 µM (inactive) | > 100 µM (inactive) | > 100 µM (inactive) | > 100 µM (inactive) | > 100 µM (inactive) |  |  | > 100 µM (inactive) | > 100 µM (inactive) | > 100 µM (inactive) | > 100 µM (inactive) | > 100 µM (inactive) | > 100 µM (inactive) | > 100 µM (inactive)
COC(=O)c1ccc(NCC2=CC(=O)C=CC2=O)cc1 | 21.4 µM (inactive) | 13.6 µM (inactive) | 2.4 µM (inactive) | 3.05 µM (inactive) |  | 12.4 µM (inactive) | 22.7 µM (inactive) | 16.7 µM (inactive) | 15.3 µM (inactive) |  | 2.69 µM (inactive) | 10.9 µM (inactive) | 5.26 µM (inactive) |  | 17.9 µM (inactive) | 1.67 µM (inactive) | 12.6 µM (inactive) | 15.1 µM (inactive) | 13.6 µM (inactive) | 11.4 µM (inactive)
Cc1cccc2c(N)c3cccc(C(=O)NCCN(C)C)c3nc12 | 0.207 µM (active) |  | < 0.015 µM (active) | < 0.01 µM (active) | 0.0378 µM (active) | 0.193 µM (active) | < 0.0161 µM (active) | < 0.0291 µM (active) | 0.231 µM (active) | < 0.0167 µM (active) | 0.0315 µM (active) |  | < 0.01 µM (active) | < 0.01 µM (active) | < 0.0236 µM (active) | < 0.01 µM (active) | 0.0643 µM (active) | 0.193 µM (active) | 1.41 µM (inactive) | 
C/C(=N\Nc1nc2ccccc2o1)c1cc(C)ncn1 | 0.231 µM (active) | 0.0851 µM (active) | 0.0129 µM (active) | < 0.01 µM (active) |  | < 0.0211 µM (active) | 0.0957 µM (active) | 0.0275 µM (active) | 1.38 µM (inactive) | < 0.0205 µM (active) | < 0.01 µM (active) | 0.107 µM (active) | 0.124 µM (active) | 0.0455 µM (active) | < 0.01 µM (active) | < 0.01 µM (active) | 0.0383 µM (active) | 4 µM (inactive) | 0.305 µM (active) | 2.42 µM (inactive)
